Results on two compounds are retold here after article PMC3260207, “Site-Directed Mutations and the Polymorphic Variant Ala160Thr in the Human Thromboxane Receptor Uncover a Structural Role for Transmembrane Helix 4” (PLoS ONE, 2012).

Substitutions are numbered along the chain they refer to.

Holding throughout (assay type): cell-based
Test [1] addresses T1, TP A160T mutant (nsSNP variant) (Homo sapiens, UniProt P21731, A160T).
T1 construct: expressed in transfected cells; HEK293T (calcium assays)
T1 sequence (P21731 1-343 A160T): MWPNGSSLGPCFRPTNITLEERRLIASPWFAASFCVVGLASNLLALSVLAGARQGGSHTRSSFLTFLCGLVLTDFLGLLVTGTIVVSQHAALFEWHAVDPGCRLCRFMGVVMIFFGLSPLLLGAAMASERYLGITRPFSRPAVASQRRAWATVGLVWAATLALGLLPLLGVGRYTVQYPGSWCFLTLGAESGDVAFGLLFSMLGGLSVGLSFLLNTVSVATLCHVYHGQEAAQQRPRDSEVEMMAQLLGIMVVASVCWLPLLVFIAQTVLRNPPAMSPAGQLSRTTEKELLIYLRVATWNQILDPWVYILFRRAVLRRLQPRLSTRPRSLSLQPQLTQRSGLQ
Briefly: Reversal of basal (agonist-independent) calcium mobilization in transfected HEK293T cells. The note with it: HEK293T cells pre-treated with 1 µM unlabelled SQ 29,548, p<0.05. The protocol:
Changes in intracellular calcium were measured by using the fluorescent calcium sensitive dye Fluo-4NW (Invitrogen). After 6–8 hours of transient transfection of HEK293T cells using lipofectamine 2000, 100,000 viable cells were plated into each well of a 96-well tissue culture treated BD-falcon optilux plates. Cells mock transfected with vector pMT4 alone were used as a negative control. Following 24 hours of incubation at 37°C, the media was removed and cells were incubated with the dye Fluo-4NW (Invitrogen) containing 77 µg/ml of probenecid for 1 hour, as recommended by the manufacturer. […] Dose–response curves were generated and EC50 values calculated by nonlinear regression analysis using PRISM software version 5.0 (GraphPad Software Inc, San Diego, CA) after subtracting the responses of mock-transfected cells stimulated with same concentrations of agonists.
For estimation of calcium mobilized using the non-ratiometric calcium indicator Fluo-4NW, the ΔF/F ratio which approximately indicates calcium is calculated using the equation (19), ΔF/F = (F-Fbase)/(Fbase -B). Where F is the measured fluorescence intensity of Fluo-4NW, Fbase is the fluorescence intensity of Fluo-4NW in the cell before stimulation, and B is the background signal determined from areas adjacent to the cell. […]
(Calcium assays in cells follow changes in intracellular calcium, usually with a dye or a luminescent sensor.)

In test [2] the target is T2, TP A160V/F115A double mutant (Homo sapiens, UniProt P21731, A160V/F115A).
T2 sequence (P21731 1-343 F115A/A160V): T1 sequence (P21731 1-343 A160T) with F115A, T160V
Briefly: Intracellular calcium mobilization (Fluo-4NW) in transfected HEK293T cells. Further details: expressed in transfected cells; transient, pMT4. The conditions noted are these: read-out: EC50 of agonist U46619 (calcium mobilized), transiently transfected HEK293T cells, mean ± S.E. The protocol: (§1) Amino acid substitutions were introduced into the synthetic TPα gene carried by the expression vector pMT4 as described previously, [29]. DNA sequences of all the mutated genes were verified by automated DNA sequencing. To minimize variations in transfection efficiency, the total amount transfected DNA was kept constant in all cases at 1 µg of DNA per 7×10^5 cells. The wild type TP or mutant genes were expressed in COS-1 cells using a DEAE-dextran based transient transfection method, [29], and in HEK293T cells using lipofectamine 2000 (Invitrogen). Except unless specified, the membranes prepared from COS-1 cells were used for radioligand binding assays and immunoblots. For intracellular calcium determination assays and immunofluorescence imaging, HEK293T cells were used. […] The protein concentration in the resuspended membrane pellet was determined using a modified DC protein assay kit from Bio-Rad Laboratories (Hercules, CA).
(§2) Changes in intracellular calcium were measured by using the fluorescent calcium sensitive dye Fluo-4NW (Invitrogen). […] Dose–response curves were generated and EC50 values calculated by nonlinear regression analysis using PRISM software version 5.0 (GraphPad Software Inc, San Diego, CA) after subtracting the responses of mock-transfected cells stimulated with same concentrations of agonists.

A further test has as its target T3, TP F115A mutant (Homo sapiens, UniProt P21731, F115A).
T3 sequence (P21731 1-343 F115A): T1 sequence (P21731 1-343 A160T) with F115A, T160A
Described as above. The arrangement: expressed in transfected cells; transient, pMT4. The note with it: read-out: EC50 of agonist U46619 (calcium mobilized), transiently transfected HEK293T cells, mean ± S.E. As to the method:
as §1, §2

In the case of `O=C(O)CCC/C=C\C[C@@H]1[C@H](CNNC(=O)Nc2ccccc2)[C@H]2CC[C@@H]1O2` [SQ 29,548], the “Effect on basal (agonist-independent) calcium mobilization” value in test [1] was “significant decrease in basal activity”.

On to `CCCCC[C@H](O)/C=C/[C@@H]1[C@@H](C/C=C\CCCC(=O)O)[C@H]2CO[C@@H]1C2` [U46619], for which the EC50 is 43.5 ± 1.5 nM in test [2] and 2 ± 0.3 nM on TP F115A mutant.

In general, EC50 refers to the concentration needed to bring the measured effect to its halfway point.
